Columns and labels:
Assay type in all cases: cell-based, human
[1] = system: FLG monomer; assay: FLG monomer in three-dimensional cultured skin, Western blotting (Example 11); conditions: 1 μM, immunoblotting
Description: In this example, the expression-increasing effect of Compound 1 on FLG monomer was examined by using a three-dimensional cultured skin. The expression of the FLG monomer was confirmed by Western blotting.
In this example, the same procedures as those in the steps 1) to 3) of Example 10 were conducted. It should be noted that as a medicament, D) Comparative Compound 3 (M344) was used, as well as A) Compound 1 and C) Comparative Compound 2 of Example 10.
4) The three-dimensional cultured skin obtained in the same manner as in the steps 1) to 3) of Example 10 was recovered, and was cut into pieces with scissors. Then, 100 μl of Lysis buffer (0.1 M Tris-HCl (pH 9.0), 6 M Urea, 1% 2-mercapto-ethanol, 1% SDS, 1 mM EDTA, and Protease inhibitor cocktail) were added and the cells were homogenized with an electrically powered pestle. The homogenized cells were centrifuged at 15,000 rpm at 4° C. for 20 minutes, and the supernatant was recovered to be used as a sample for measurement. The total protein in the sample was quantified by using a protein assay reagent (Bio-Rad Laboratories, Inc.) according to the manufacturer's protocol. The protein was adjusted so that each sample contained 15 μg protein/lane, and the samples were subjected to electrophoresis by SDS-PAGE (Invitrogen, NuPAE Novex Bis-Tris mini Gel 4 to 12%) under the conditions of 100 V and 2 hours. As a marker, Precision Plus Protein Standards (Bio-Rad Laboratories, Inc.) was used. The proteins separated by the electrophoresis were transferred to a PVDF membrane (blotting), and the expression of FLG monomer was confirmed by using an anti-FLG antibody (Filaggrin AKH1, Santa Crus). At that time, Anti-mouse IgG-HRP (GE Healthcare) was used as a secondary antibody, and Amersham ECL Plus Western Blotting Detection Reagents (GE Healthcare) was used as a color developer.

[2] = system: GPR142; assay: Blocking effect by GPR142 RNAi in NHEK cells (Examples 5 and 6); conditions: GPR142 siRNA, compound 10 nM, 1 day
Description: In this example, it was confirmed that the expression-inducing effects of Compound 1 on GPR142 mRNA and FLG mRNA in NHEK cells were blocked by GPR142 RNAi.
1) 5×10^4 cells/well of NHEK cells (Invitrogen) were plated on a 24-well plate. Then, 500 μl of a culture medium containing a medium for proliferating normal human epidermal keratinocytes (HuMedia-KG2, KURABO INDUSTRIES LTD.) supplemented with hEGF (0.1 ng/ml), insulin (10 μg/ml), hydrocortisone (0.5 μg/ml), gentamycin (50 μg/ml), amphotericin B (50 ng/ml), and bovine brain pituitary extract (BPE) (0.4%, v/v) were added to the plate, and the cells were cultured under the conditions of 37° C. and 5% CO2.
2) After culture under the conditions of the step 1) for 1 day, the medium was exchanged for the culture medium of the step 1) to which CaCl2 (1.2 mM in terms of Ca) was further added as Ca, and culture was conducted under the conditions of 37° C. and 5% CO2. After culture for 1 day, the medium was exchanged for the same culture medium containing Ca, and culture was further conducted for 1 day.
3) The NHEK cells of the step 2) were transfected with 50 nM of siRNA per well of the 24-well plate by using a transfection reagent, Lipofectamine RNA Max (Invitrogen) according to the manufacturer's protocol.
The sequences of the used three kinds of GPR142 siRNAs and the sequences of the used control siRNAs (all the siRNAs are manufactured by Invitrogen) are described below.
4) After culture for 1 day after the transfection with siRNA in the step 3), the medium was exchanged for the culture medium of the step 1) to which a DMSO solution of Compound 1 was added at 10 nM per well, and culture was further conducted for 1 day. As a control, a solvent only (vehicle) was added.
5) An extraction reagent (TRIzol™, Invitrogen) was used, and according to the manufacturer's protocol, total RNA was extracted from each of cells treated with the medicament. A reverse transcriptase reagent (Prime Script™, Takara) was used, and according to the manufacturer's protocol, cDNA was prepared from the total RNA. Next, real-time PCR was conducted by using the following primers and SYBR™ Premix Ex Taq (Takara) with a CFX96 real-time PCR instrument according to the manufacturer's protocol, and the amounts of GPR142 mRNA and FLG mRNA expression were measured. The result of measurement is shown as a GAPDH ratio.
In this example, it was confirmed that the expression-inducing effects of Compound 2 or 3 on GPR142 mRNA and FLG mRNA in NHEK cells were blocked by GPR142 RNAi.
NHEK cells were transfected in the same manner as in Example 5 except that, in the steps 1) to 3) of Example 5, two kinds of GPR142 siRNAs and two kinds of control siRNAs, i.e., GPR142-1 (#HSS139493) and GPR142-3 (#HSS179846) and Control-1 (LOW GC, #129350-200), and Control-3 (HIGH GC, #129350-400) were used as GPR142 siRNAs and control siRNAs, respectively. After culture for 1 day after the transfection was conducted in the same manner as in the step 4) of Example 5, the medium was exchanged for the culture medium to which each of a DMSO solution of Compound 1, a DMSO solution of Compound 2, or a methanol solution of Compound 3 was added at 10 nM per well, and culture was further conducted for 1 day. As a control, a solvent only (vehicle) was added. Regarding each of cells treated with the medicament, real-time PCR was conducted to measure the amounts of GPR142 mRNA and FLG mRNA in the same manner as in the step 5) of Example 5. The results of the measurement are shown as a GAPDH ratio.

[3] = system: GPR142; assay: Action on adenylate cyclase activity (cAMP) in GPR142-overexpressing HEK293T cells (Examples 8 and 9); conditions: GPR142-overexpressing HEK293T cells, 1,000 nM, forskolin 10 μM, IBMX 1 mM, 20 minutes
Description: In this example, the cAMP production-suppressing effect of Compound 1 was confirmed.
1) 6×10^4 cells/well of HEK293T cells were plated on a collagen-coated 24-well plate, a culture medium containing DMEM medium (Invitrogen) supplemented with penicillin (50 μg/ml), streptomycin (50 μg/ml), and fetal bovine serum (FBS) (10%, v/v) was added to the plate, and the cells were cultured under the conditions of 37° C. and 5% CO2.
2) A GPR142PCXN mammalian expression vector was prepared in the same manner as in the step 2) of Example 7.
3) After culture for 1 day under the conditions of the step 1), HEK293T cells were transfected with 0.2 μg of the GPR142PCXN mammalian expression vector per well by using a transfection reagent Fugene™ HD (Promega Corporation) according to the manufacturer's protocol. As a control, cells transfected only with the PCXN mammalian expression vector were used.
4) After culture for 1 day after the transfection described above, 1 mM of isobutylmethylxanthine (IBMX), which was a cAMP phosphodiesterase inhibitory substance, was added to HEK293T cells, and thereafter, the cells were cultured for 10 minutes at 37° C.
5) Next, the medium was exchanged for the culture medium to which 0.1 nM to 1000 nM of a DMSO solution of Compound 1, 10 μM of forskolin, and 1 mM of IBMX per well were added, and the cells were further cultured for 20 minutes at 37° C. As a control, a solvent (vehicle), 10 μM of forskolin, and 1 mM of IBMX were added.
6) The cells cultured in the step 5) were lysed by 0.1 mol/L of HCl. The cAMP concentration within the cells was measured by using Cyclic AMP EIA Kit (Cayman Chemical Company) according to the manufacturer's protocol. The result is shown as the ratio (%) of the cAMP concentration in the cells treated with Compound 1 with respect to the cAMP concentration in the control example defined as 100%.
In this example, the cAMP production-suppressing effect of Compound 2 or 3 was confirmed.
HEK293T cells were cultured in the same manner as in the steps 1) to 4) of Example 8. Next, the cells were cultured in the same manner as in the step 5) of Example 8 except that, in the step 5) of Example 8, each of a methanol solution of Compound 3, a DMSO solution of Compound 2, and a DMSO solution of Comparative Compound 2 was used at 1,000 nM per well instead of Compound 1. The cAMP concentration in the cultured cells was measured in the same manner as in the step 6) of Example 8.

CN(C)c1ccc(C(=O)NCCCCCCC(=O)NO)cc1 [Comparative Compound 3, 4-Dimethylamino-N-(6-hydroxycarbamoylhexyl)benzamide, reference compound]
production of FLG monomer [1]: clear production of FLG monomer was not observed

COC(=O)CNC(Cc1ccccc1)C(=O)Nc1cc(-c2ccncc2)nn1C.Cl.Cl (stereo not drawn) [Compound 3, Methyl 2-(1-(1-methyl-3-(pyridine-4-yl)-1H-pyrazol-5-ylamino)-1-oxo-3-phenylpropan-2-ylamino)acetate dihydrochloride]
induction of FLG mRNA expression: dependence on GPR142 [2]: mediated by GPR142
decrease of cAMP production [3]: about 24%

From patent publication US20150190416A1, “FILAGGRIN PRODUCTION PROMOTER, THERAPEUTIC AGENT FOR DISEASES ASSOCIATED WITH REDUCTION IN PRODUCTION OF FILAGGRIN, AND METHOD FOR SCREENING FOR SAID THERAPEUTIC AGENT” (KYOTO UNIVERSITY, priority 2012, published 2015)
